Molecules are shown by their SMILES.

Type in all cases: cell-based, Mycobacterium tuberculosis
Assay [1] deals with AX-resistant mutants of M. tuberculosis H37Rv.
In assay [2] the test system is H37Rv Δcyd KO with a QcrB(A317V) mutation.
The test system of assay [3] is Q203-resistant strain of M. tuberculosis H37Rv (QcrB T313A).
The test system of assay [4] is AX-resistant mutants of M. tuberculosis H37Rv (QcrB S182P, M342V, M342I).
The test system of assay [5] is LPZS-resistant strain of M. tuberculosis H37Rv (QcrB L176P).

`CCc1nc2ccc(Cl)cn2c1C(=O)NCc1ccc(N2CCC(c3ccc(OC(F)(F)F)cc3)CC2)cc1` [Compound Q203, reference compound]: the “Intracellular ATP level” value in assay [1] is on record as “depleted”. The “OCR change from basal on compound addition” value in assay [2] is “unaffected”.

`COc1nc2ccc(Br)cc2cc1[C@@H](c1ccccc1)[C@@](O)(CCN(C)C)c1cccc2ccccc12` [BDQ, bedaquiline, reference compound]: the “Intracellular ATP level” value in assay [1] is “depleted”.

On to `O=C(/C=C/c1cccs1)N1CCN(Cc2ccc3c(c2)OCO3)CC1` [AX-35, (E)-1-(4-(Benzo[d][1,3]dioxol-5-ylmethyl)piperazin-1-yl)-3-(thiophen-2-yl)prop-2-en-1-one], for which the Cross-resistance entry in assay [3] and in assay [5] was “cross-resistant” in each case. For the same molecule, the “Increase in MIC compared to parental strain H37Rv” value in assay [4] was 50 fold. Also, the “Intracellular ATP level” value in assay [1] was “essentially unaffected”. In assay [2], the “OCR change from basal on compound addition” value is recorded as “decreases”.

Take `O=C(/C=C/c1ccsc1)N1CCN(Cc2ccc3c(c2)OCO3)CC1` [AX-36, (E)-1-(4-(Benzo[d][1,3]dioxol-5-ylmethyl)piperazin-1-yl)-3-(thiophen-3-yl)prop-2-en-1-one]: the Cross-resistance result in assay [3] and in assay [5] was “cross-resistant” throughout. Also, the “Increase in MIC compared to parental strain H37Rv” value in assay [4] is recorded as 50 fold. Besides, the “Intracellular ATP level” value in assay [1] is reported as “essentially unaffected”.
